For this assay, the system named is K24384-001-R-PDC complex spheroids, viability. Description: Anticancer human tumor K24384-001-R-PDC patient-derived pancreatic adenocarcinoma cell line growth inhibition [GQUAD]. Conditions: for viability, T/C: stronger effect = lower value. An excerpt:
DNA G-quadruplex Stabilizer Agents in Combinations in Complex Spheroids
A high-throughput screen of multi-cell type tumor spheroids was designed to identify active combinations of DNA G-quadruplex stabilizer agents and targeted small molecules. Complex spheroids include a stromal component modeled by human endothelial cells (HUVEC) and fibroblasts modeled by human mesenchymal stem cells (MSCs). The concentration ranges selected for each drug and investigational agent were based upon clinically achievable concentrations if the clinical Cmax of the agent was known.
Compounds. The drugs and investigational agents: pidnarulex (CX-5461; NSC782164), APTO-253 (NSC789042), BRACO-19 (NSC847499), peposertib (NSC802822), ceralasertib (NSC780249), elimusertib (NSC800525), camonsertib (NSC841442), AZD-1390 (NSC803789), olaparib (NSC753686), talazoparib (NSC767125), ART-558 (NSC835418), sotorasib (NSC818433), MRTX-1133 (NSC836407), SN-38 (NSC673596), topotecan (NSC609699), etoposide (NSC141540), doxorubicin (NSC123127), gemcitabine (NSC613327), 5-fluorouracil (NSC19893), paclitaxel (NSC125973), vemurafenib (NSC761431), panobinostat (NSC761190), R-306465 (JNJ-16241199; NSC773264), adavosertib (NSC754352), TP-3654 (NSC805149), carboplatin (NSC241240), KSQ-4279 (NSC840948), and staurosporine (NSC755774) were obtained from the National Cancer Institute (NCI) Developmental Therapeutics Program Chemical Repository (34). The FDA-approved anticancer drug set is available from the NCI Developmental Therapeutics Program. […] The stock solutions were prepared in dimethyl sulfoxide (DMSO, Sigma-Aldrich, St. Louis, MO, cat. D2650) at 800-fold the tested concentration and stored at -70 degrees C prior to their use. All drugs and investigational agents were tested over a range starting from a high concentration at or near the clinical Cmax and decreasing in half-log increments. If the clinical Cmax for an agent had not been determined, the highest concentration tested was 10 microM.
2.3 Cell Culture. All cells were maintained in an incubator at 37 degrees C and 5% CO2 with 95% humidity. The PDC lines were cultured according to standard operating procedures established by the NCI PDMR. All PDCs were thawed and cultured in Matrigel-coated flasks prepared with a working solution of 1X Ham's F-12 nutrient mix, without supplementation (Invitrogen, cat. 11765054), 100 U/mL penicillin-streptomycin (Invitrogen, cat. 15140122), and 2.5% Matrigel (Corning Inc., cat. 354248) for the first three passages. The 857933-349-R-J2-PDC line was cultured in 6C/Colon 1B media, which includes advanced DMEM/F-12 (Thermo Fisher Scientific, cat. 12634028), 10 mM HEPES (Thermo Fisher Scientific, cat. 15630080), 1X GlutaMAX supplement (Thermo Fisher Scientific, cat. 35050061), 0.1 mg/mL primocin (InvivoGen, cat. ant-pm-2), 10% defined fetal bovine serum, heat inactivated (HyClone Laboratories Inc., cat. SH30070.03HI), 50% L-WRN conditioned media (ATCC, cat. CRL-3276), 1.25 mM N-Acetyl-L-cysteine (Sigma-Aldrich, cat. A9165), 10 mM nicotinamide (Sigma-Aldrich, cat. N0636), 1X B-27 supplement (Thermo Fisher Scientific, cat. 17504044), 1X N-2 supplement (Thermo Fisher Scientific, cat. 17502048), 10 microM Y-27632 dihydrochloride (Tocris Bioscience, cat. 1254), and 50 ng/mL human EGF recombinant protein (Thermo Fisher Scientific, cat. PHG0311). The 485176-168-R4-J1-PDC line was cultured in Panc media, which includes all 6C/Colon 1B media components plus 100 ng/mL human FGF-10 (Thermo Fisher Scientific, cat. 100-26), 500 nM SB-431542 (Selleckchem, cat. S1067), and gastrin (Tocris, cat. 3006).
[…]

As a reminder, the viability, T/C is the result in the treated group divided by that in the control group, in per cent. One may read the IC50 as the concentration needed to halve the response being measured.

Molecules are shown by their SMILES. “And” between values parts separate entries of the source, which are not always exact repeats. Equal entries are not always repeated.
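Also: spheroids exposed to compounds for seven days.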

Take `COc1cc(C2c3cc4c(cc3C(OC3OC5COC(C)OC5C(O)C3O)C3COC(=O)C23)OCO4)cc(OC)c1O` (centres undefined): the viability, T/C runs as follows: (compound 0.0316 µM) 103% and 98.4% and 102%; (compound 0.1 µM) 98% (2×) and 98.4%; (compound 0.316 µM) 75.9% and 85.9% and 71.3%; (compound 1 µM) 48.9% and 52.9% and 48.6%; (compound 3.16 µM) 37.1% and 41.1% and 35.2%; (compound 10 µM) 30.8% and 35.4% and 31.2%. For the same compound, for the setting “curve of compound”, the IC50 was 0.964 µM and 1.32 µM and 0.884 µM.

Take `COc1ccc([C@@H](O)c2cc(-c3ncnc4cc(N5CCOCC5)ccc34)c(F)cc2Cl)nn1`: the viability, T/C was 92.4% and 98.4% and 120% (compound 0.0316 µM); 99.1% and 95.7% and 103% (compound 0.1 µM); 103% and 83.4% and 83.3% (compound 0.316 µM); 72.3% and 65% and 84.7% (compound 1 µM); 48.4% and 44.9% and 56% (compound 3.16 µM); 29.8% and 22.7% and 35.5% (compound 10 µM). Also, where the note is “curve of compound”, the IC50 is 2.66 µM and 2.31 µM and 4.74 µM.

Consider `COc1cccc2c1C(=O)c1c(O)c3c(c(O)c1C2=O)CC(O)(C(=O)CO)CC3OC1CC(N)C(O)C(C)O1` (centres undefined), for which the viability, T/C by setting is: (compound 0.0316 µM) 96.8% and 80.5% and 92.1%; (compound 0.1 µM) 67.9% and 52.2% and 54.5%; (compound 0.316 µM) 38.1% and 41.2% and 43.5%; (compound 1 µM) 19.5% and 22.3% and 19.1%; (compound 3.16 µM) 7.67% and 6.06% and 6.27%; (compound 10 µM) 4.91% and 3.92% and 4.93%. Also, where the note is “curve of compound”, the IC50 is 0.201 µM and 0.144 µM and 0.161 µM.

`Cc1[nH]c2ccc(F)cc2c1-c1nc2c3cccnc3c3ncccc3c2[nH]1`: the viability, T/C is, setting by setting: (compound 0.0316 µM) 109% [middle of 12 runs]; (compound 0.1 µM) 102% [middle of 12 runs]; (compound 0.316 µM) 99% [middle of 12 runs]; (compound 3.16 µM) 65.3% [middle of 12 runs]. The IC50 (compound alone, run of 02/20/2024) is > 10 µM and 9.08 µM; the IC50 (compound alone, run of 02/26/2024) was more than 10 µM.

In the case of `Cc1[nH]c2ccccc2c1CCNCc1ccc(/C=C/C(=O)NO)cc1`, the viability, T/C is, setting by setting: (compound 0.000999 µM) 103% and 120% and 118%; (compound 0.00316 µM) 96.8% and 103% and 92.5%; (compound 0.00999 µM) 92.9% and 110% and 98.1%; (compound 0.0316 µM) 90% and 89.4% and 90.5%; (compound 0.0999 µM) 56.2% and 61% and 48.7%; (compound 0.316 µM) 6.17% and 6.7% and 5.53%. The concentration for half-maximal inhibition (IC50) (curve of compound) was 0.116 µM and 0.126 µM and 0.101 µM.

With `Cc1cccc(N(C)C(=O)C2C(O)CCN2c2nc(C)cc(C(F)(F)F)c2C#N)c1` (centres undefined), the viability, T/C runs as follows: (compound 0.0316 µM) 111% and 106% and 99%; (compound 0.1 µM) 106% and 98% and 82%; (compound 0.316 µM) 122% and 102% and 99.9%; (compound 1 µM) 91.4% and 86.8% and 108%; (compound 3.16 µM) 115% and 88% and 114%; (compound 10 µM) 115% and 106% and 127%. The IC50 (curve of compound) is more than 10 µM.

As for `Cc1cnc(CNC(=O)c2c(=O)c3ccc(N4CCCN(C)CC4)nc3n3c2sc2ccccc23)cn1`, the viability, T/C is, setting by setting: (compound 0.0316 µM) 82.8% [middle of 12 runs]; (compound 0.1 µM) 66.4% [middle of 12 runs]; (compound 0.316 µM) 50.4% [middle of 12 runs]; (compound 1 µM) 44.4% [middle of 12 runs]; (compound 3.16 µM) 34.6% [middle of 12 runs].

Turning to `Cn1ncnc1[C@H]1c2n[nH]c(=O)c3cc(F)cc(c23)N[C@@H]1c1ccc(F)cc1`, the viability, T/C (compound 0.000999 µM) is 112% and 100% and 116%; the viability, T/C (compound 0.00316 µM) was 106% and 95% and 96.9%; the viability, T/C (compound 0.00999 µM) was 109% and 76.1% and 136%; the viability, T/C (compound 0.0316 µM) was 79.5% and 80.1% and 87.8%; the viability, T/C (compound 0.0999 µM) was 88.6% and 88.1% and 99.9%; the viability, T/C (compound 0.316 µM) is 85.2% and 80.7% and 93.3%. Under “curve of compound”, the IC50 is more than 0.316 µM.

In the case of `Nc1ccn(C2OC(CO)C(O)C2(F)F)c(=O)n1` (centres undefined), the viability, T/C reads like this: (compound 0.0316 µM) 84.3% and 75.7% and 81.2%; (compound 0.1 µM) 63.9% and 51.3% and 63.6%; (compound 0.316 µM) 50% and 35.2% and 65.7%; (compound 1 µM) 34.6% and 28.7% and 32.3%; (compound 3.16 µM) 21.7% and 26.4% and 21.4%; (compound 10 µM) 15.8% and 21.2% and 19.7%. Moreover, the IC50 (curve of compound) is 0.285 µM and 0.108 µM and 0.531 µM.

On to `O=C(c1cc(Cc2n[nH]c(=O)c3ccccc23)ccc1F)N1CCN(C(=O)C2CC2)CC1`, for which the viability, T/C (compound 0.0316 µM) is 104% and 98.6% and 94.7%; the viability, T/C (compound 0.1 µM) is 93.9% and 91.4% and 99.2%; the viability, T/C (compound 0.316 µM) was 113% and 98.2% and 86.2%; the viability, T/C (compound 1 µM) was 93.1% and 97.6% and 91%; the viability, T/C (compound 3.16 µM) is 101% and 72.5% and 91.1%; the viability, T/C (compound 10 µM) is 79.3% and 69.8% and 82.3%. Further, the IC50 (curve of compound) is more than 10 µM.

As for `O=c1[nH]cc(F)c(=O)[nH]1`, the viability, T/C is 101% and 113% and 79.9% (compound 0.0316 µM); 71.8% and 95.1% and 98.7% (compound 0.1 µM); 89.6% and 94.3% and 82.2% (compound 0.316 µM); 54.9% and 55.5% and 54.3% (compound 1 µM); 41.3% and 45.8% and 44.6% (compound 3.16 µM); 45.5% and 56.4% and 37.8% (compound 10 µM). For the same compound, the IC50 (curve of compound) was 1.64 µM and > 10 µM and 1.5 µM.

The values above are taken from PubChem BioAssay AID2060483 (Molecular Pharmacology Branch, DTP, NCI, 2025).
